Results reported in patent publication US20080125453A1 (TIBER LABORATORIES, LLC, priority 2001, published 2008).
Structures can show the parent of a compound that is named as a salt.

Key:
[1] = assay type: physicochemical
Experimental: The salt of the active ingredient, corresponding to an amount of free base present in a final batch size of 1 kg was dissolved in 100 ml of purified water. 120 ml of purified water was placed in a 600 ml beaker and stirred. While stirring, 3 g of MAS was added in small portions to obtain a dispersion. The amount of MAS used is a part of the total amount of MAS to be used in the formulation. Once the MAS was dispersed, tannic acid was added to the mixture and stirred to form a uniform dispersion. Three different batches of the MAS/tannic acid dispersion in purified water were prepared for each active. In the three batches, the amount of tannic acid used in the batch may vary from an amount equal to that of the free base, to two time to three times that of the free base present in the initial salt solution.
The salt solution was then added in small portions, under light stirring, to the MAS/Tannic acid dispersion. After all of the salt solution was added, the volume was made up to 250 ml with purified water and stirring was continued for a period of 10 minutes.
The MAS was used in this step to serve as an adherent or a solid support for the tannic acid molecules to facilitate the conversion process.

[2] = background statement; cited from earlier work

CNC[C@H](O)c1cccc(O)c1 [phenylephrine]
solubility of the tannate salt in purified water [1]: partial solubility

COc1ccc(CN(CCN(C)C)c2ccccn2)cc1 [pyrilamine]
precipitate formation on addition to MAS/tannic acid dispersion ([1]; purified water, at all three concentrations of tannic acid (1x, 2x, 3x the free base)): copious amounts of precipitate

CNC[C@H](O)c1cccc(O)c1 [Phenylephrine hydrochloride]
solubility in water [2]: freely soluble

COc1ccc(CN(CCN(C)C)c2ccccn2)cc1 [Pyrilamine hydrochloride, N-[(4-methoxyphenyl)methyl]-N′,N′-dimethyl- -N-2-pyridinyl-1,2-ethanediamine]
solubility in water [2]: freely soluble

COc1ccc(CN(CCN(C)C)c2ccccn2)cc1 [maleate salt, N-[(4-methoxyphenyl)methyl]-N′,N′-dimethyl- -N-2-pyridinyl-1,2-ethanediamine]
solubility in water [2]: slightly soluble
